Counter-ions that a name gives are not always drawn.
How the values were obtained:
[1] = Dissolution rate of lyophilized J1/sucrose in 5% glucose solution (Example 1); format: physicochemical; details: lyophilized 0.1 mg J1 and 0.2 mg sucrose, 0.5 ml 5% glucose solution
Experimental: The speed of dissolution of melphalan flufenamide hydrochloride (J1) by addition of sucrose to the freeze-drying process of J1 was tested. Sucrose is a formulation agent Generally Considered As Safe (GRAS) according to the FDA (US Food and Drug Administration).
A solution of J1 (5 mg) was made in tert-butanol:water 1:1 (5 ml). 100 μl of the solution was added to a vial containing 0.2 mg sucrose. The vial was covered with aluminium foil and frozen on dry ice-acetone. The vial consisted of 0.1 mg J1 and 0.2 mg sucrose. The vial with sample was thereafter freeze-dried overnight. Freeze-drying was performed on a Leybold Lyovac GT2 equipment.
A 5% glucose solution (100 ml) was prepared and the internal marker 3-methoxy-benzoic acid (0.8 mg/ml) was added to the solution.
0.5 ml of the glucose solution from step 2, was added to the freeze-dried vial with J1 sample from step 1. The vial was shaken at room temperature for 15 seconds and thereafter filtered and transferred to a glass vial for J1 concentration measurement, with HPLC. The amount of dissolved J1 was determined using HPLC and a calibration curve.

[2] = Stability test of J1 solution (HPLC), Example 6; format: physicochemical
Experimental: Stability of the solution containing J1 and tert-butanol:water, 1:1 (v/v), was tested. A solution comprising tert-butanol:water 1:1 (v/v) and J1 at a concentration of 1 mg/ml, was left at room temperature for 5 days.

[3] = Stability of previous preparation in DMA in a glucose solution; format: physicochemical; details: dissolved in DMA (dimethylacetamide) in a glucose solution
Excerpt: In previous preparations, melphalan flufenamide was obtained from synthesis as a white powder in crystalline form. This crystalline form can only be dissolved in highly acidic aqueous solutions, which for practical manufacturing purposes is impossible. […] Therefore, previously melphalan flufenamide was instead dissolved in DMA (dimethylacetamide) in a glucose solution. The preparation is feasible but is unstable: 7% degradation/h. Furthermore, dimerization occurs and the solution turns bright yellow. This preparation was, however, unreliable and the polymerization rate varied in an unacceptable manner.

tumors = details: even at lower concentrations than melphalan; cited from earlier work
[4] = tert-butanol:water 1:1 (v/v), 1 mg/ml, room temperature, 5 days

Row | Compound | % of J1 dissolved in 15 seconds ([1]; room temperature) | concentration of J1 dissolved in the glucose solution during 15 seconds ([1]; shaken at room temperature 15 seconds) | degradation compared with tert-butanol:water solution ([2]; J1 dissolved in an acidic ethanol-water solution) | amount of J1 by HPLC signal after 5 days [2, 4] | decrease of J1 HPLC signal [2, 4] | amount of J1 by HPLC signal, initial ([2]; tert-butanol:water 1:1 (v/v), 1 mg/ml, room temperature, start) | degradation [3] | cell killing activity against tumors (tumors)
1 | CCOC(=O)[C@H](Cc1ccc(F)cc1)NC(=O)[C@@H](N)Cc1ccc(N(CCCl)CCCl)cc1 [Sample J1, melphalanyl-L-p-fluorophenylalanine ethyl ester hydrochloride] | approximately 40% | 0.08 mg/mL | much more rapid | 85.5% | 11.7% | 97.2% | – | –
2 | CCOC(=O)[C@H](Cc1ccc(F)cc1)NC(=O)[C@@H](N)Cc1ccc(N(CCCl)CCCl)cc1 [melphalan flufenamide, melphalanyl-L-p-fluorophenylalanine ethyl ester] | – | – | – | – | – | – | 7 % degradation/h | increased cell killing activity

From patent publication US10285947B2, “Lyophilized preparations of melphalan flufenamide” (priority 2012, dated 2019)
